According to PubChem BioAssay (NCI):
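Following 48 hours of exposure in 96-well plates, responses at five concentrations were used to interpolate endpoints linearly. TGI: concentration producing complete growth inhibition.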

Assays:
Test in all cases: growth of human tumour cells (NCI), 48 h
[1] = tested on: K-562 leukemia
[2] = tested on: SW-620 colon
[3] = tested on: SF-268 CNS
[4] = tested on: MDA-N
[5] = tested on: BT-549 breast
[6] = tested on: NCI-H460 lung
[7] = tested on: RPMI-8226 leukemia
[8] = tested on: HCT-15 colon
[9] = tested on: MDA-MB-435
[10] = tested on: ACHN renal
[11] = tested on: CCRF-CEM leukemia
[12] = tested on: NCI-H226 lung
[13] = tested on: EKVX NSCLC
[14] = tested on: NCI/ADR-RES ovarian
[15] = tested on: HCC-2998 colon
[16] = tested on: NCI-H23 lung
[17] = tested on: UACC-62 melanoma
[18] = tested on: TK-10 renal
[19] = tested on: SR leukemia
[20] = tested on: UO-31 renal
[21] = tested on: CAKI-1 renal
[22] = tested on: MOLT-4 leukemia
[23] = tested on: OVCAR-8 ovarian
[24] = tested on: UACC-257 melanoma
[25] = tested on: A498 renal
[26] = tested on: HOP-92 NSCLC
[27] = tested on: U251 CNS
[28] = tested on: SNB-75 CNS
[29] = tested on: SK-MEL-28 melanoma
[30] = tested on: MDA-MB-231 breast
[31] = tested on: KM12 colon
[32] = tested on: SNB-19 CNS
[33] = tested on: OVCAR-4 ovarian
[34] = tested on: HL-60(TB) leukemia
[35] = tested on: SN12C renal
[36] = tested on: M14 melanoma
[37] = tested on: HT29 colon
[38] = tested on: HOP-62 NSCLC
[39] = tested on: OVCAR-3 ovarian
[40] = tested on: SK-OV-3 ovarian
[41] = tested on: A549 NSCLC
[42] = tested on: SF-295 CNS
[43] = tested on: IGROV1 ovarian
[44] = tested on: SK-MEL-2 melanoma
[45] = tested on: MCF7 breast
[46] = tested on: PC-3 prostate
[47] = tested on: 786-0 renal
[48] = tested on: HS 578T breast
[49] = tested on: HCT-116 colon
[50] = tested on: DU-145 prostate
[51] = tested on: COLO 205 colon
[52] = tested on: NCI-H522 lung
[53] = tested on: LOX IMVI melanoma
[54] = tested on: RXF 393 renal
[55] = tested on: OVCAR-5 ovarian
[56] = tested on: SK-MEL-5 melanoma
[57] = tested on: SF-539 CNS

Measured: TGI

CC1(C)C2CCC(CN)(C2)C1O (stereo not drawn)
not listed: [36] | [37] | [38] | [39] | [40] | [41] | [42] | [43] | [44] | [45] | [46] | [47] | [48] | [49] | [50] | [51] | [52] | [53] | [54] | [55] | [56] | [57]
> 100 µM: all other assays above

O=C1NC(=O)C(CC(C(=O)C(=O)Nc2ccccc2Cl)C(=O)c2ccc3ccccc3c2)C(=O)N1 (stereo not drawn)
not listed: [1] | [7] | [19] | [25]
> 100 µM: all other assays above
